Results published in ChEMBL document CHEMBL5726951, “Small molecule inhibitors of the JAK family of kinases” (2019).

Experiments:
[1] = target: Tyrosine-protein kinase JAK2 (Homo sapiens, UniProt O60674); assay: LC/MS grade water and acetonitrile (ACN), were purchased from HoneyWell, Burdick & Jackson (Muskegon, Mich., USA). […] The compounds were tested in duplicate. Column 12 was used for positive controls, and column 24 contained negative controls with no enzyme added. A compound from our internal collection, with inhibitory activity for JAK isoforms, was used as a reference compound. […] The enzyme reaction was initiated by the addition of 10 μL of enzyme and ATP mixture to 10 μL of substrate solution prepared in reaction buffer (50 mM MOPS pH 7.5, 10 mM MgCl2, 1 mM EDTA, 2 mM DTT, 0.002% Tween-20). The Tyk2 enzyme was pre-incubated with 2 mM ATP for 30 min prior to the reaction initiation. Immediately after the addition of the enzyme to the reaction mixture, the plate was centrifuged at 1000 rpm for 1 minute and incubated at 25° C. for 45 minutes for JAK3 and 90 minutes for JAK1, JAK2 and Tyk2. […] The plates then were transferred on to the RapidFire for the MS analysis. Compound inhibition was assessed by a decrease of the phosphorylated product levels in sample wells compared to the non-inhibited enzyme reaction.
Tyrosine-protein kinase JAK2, sequence (O60674 whole entry, canonical isoform): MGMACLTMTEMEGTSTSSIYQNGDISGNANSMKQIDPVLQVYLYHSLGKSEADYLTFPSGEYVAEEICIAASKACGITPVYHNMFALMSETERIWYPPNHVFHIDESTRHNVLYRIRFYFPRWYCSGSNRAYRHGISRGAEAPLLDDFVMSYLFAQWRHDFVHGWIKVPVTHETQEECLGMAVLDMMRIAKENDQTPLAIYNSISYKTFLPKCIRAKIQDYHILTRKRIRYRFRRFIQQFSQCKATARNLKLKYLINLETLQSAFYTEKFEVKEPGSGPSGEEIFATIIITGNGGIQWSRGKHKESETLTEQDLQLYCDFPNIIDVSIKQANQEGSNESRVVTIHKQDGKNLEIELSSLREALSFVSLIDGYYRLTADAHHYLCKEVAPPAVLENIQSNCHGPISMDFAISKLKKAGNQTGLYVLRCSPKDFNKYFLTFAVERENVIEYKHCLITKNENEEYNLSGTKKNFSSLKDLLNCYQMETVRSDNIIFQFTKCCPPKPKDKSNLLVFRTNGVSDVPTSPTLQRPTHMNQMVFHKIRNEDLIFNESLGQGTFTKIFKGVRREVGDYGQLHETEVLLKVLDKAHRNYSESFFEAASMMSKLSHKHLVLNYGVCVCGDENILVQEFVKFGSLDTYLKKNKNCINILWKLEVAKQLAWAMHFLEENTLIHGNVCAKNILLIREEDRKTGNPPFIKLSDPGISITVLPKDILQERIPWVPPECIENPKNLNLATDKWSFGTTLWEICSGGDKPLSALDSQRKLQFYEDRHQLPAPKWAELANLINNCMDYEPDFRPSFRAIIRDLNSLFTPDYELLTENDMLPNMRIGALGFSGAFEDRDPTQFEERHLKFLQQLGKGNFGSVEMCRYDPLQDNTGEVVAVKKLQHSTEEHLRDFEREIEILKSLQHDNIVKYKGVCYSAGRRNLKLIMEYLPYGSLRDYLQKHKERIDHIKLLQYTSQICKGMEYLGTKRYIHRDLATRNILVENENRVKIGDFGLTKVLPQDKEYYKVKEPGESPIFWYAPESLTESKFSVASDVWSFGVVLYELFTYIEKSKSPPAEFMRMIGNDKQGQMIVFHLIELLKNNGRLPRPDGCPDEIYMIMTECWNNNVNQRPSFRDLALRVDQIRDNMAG

[2] = target: Non-receptor tyrosine-protein kinase TYK2 (Homo sapiens, UniProt P29597, C1142A/C936A); assay: (§1) Enzymatic Inhibition Assay: Substrate (NH2-[…]-CO2), internal standard peptide (NH2-[…]-CO2) and product peptide (for standard curve only) (NH2-[…]-Pi-FELVKK-CO2), were purchased from AnaSpec (Fremont, Calif., USA). JAK1-JH1JH2 (574-1154 with a His-GST Tag and a C-terminal tev (ENLYFQ-G) cleavage site), JAK3-JH1JH2 (512-1124 with a GST Tag and a C-terminal tev (ENLYFQ-G) cleavage site), and Tyk2-JH1JH2 (8H_tev_580-1182-C936A-C1142A with a C-terminal tev (ENLYFQ-G) cleavage site) were purified internally. JAK2-JH1JH2 (532-1132 with a GST tag and C-terminal tev (ENLYFQ-G) cleavage site), was purchased from Invitrogen. LC/MS grade water and acetonitrile (ACN), were purchased from HoneyWell, Burdick & Jackson (Muskegon, Mich., USA). Dimethylsulfoxide 99.8% (DMSO) and trifluoroacetic acid 99.5% (TFA) were purchased from EMD Chemical (Gibbstown, N.J., USA). Adenosine triphosphate (ATP), 4-morpholinepropanesulfonic acid (MOPS), magnesium chloride (MgCl2), ethylenediaminetetraacetic acid (EDTA), dithiothreitol (DTT), formic acid>95% (FA) and Tween-20 were purchased from Sigma (St Louis, Mo., USA). 384-well polypropylene plates, Cat#781280 were purchased from Greiner (Monroe, N.C.), RapidFire™ cartridge A C4 Column (Agilent Technologies, Santa Clara, Calif.).The HTMS experiments were performed in positive ionization mode on a RapidFire 300 instrument (Agilent Technologies, Santa Clara, Calif.), coupled with an ABSiex QTrap 4000 system with an Electrospray Ionization source (RF-MS) (Concord, ON, Canada). The RapidFire system was run with 3 Agilent 1200 series isocratic pumps Agilent Technologies (Santa Clara, Calif.) and one peristaltic pump model ISM832C from Ismatec (Wertheim, Germany). The entire system was operated using the RapidFire software interfaced with Analyst software for the mass spectrometer.Assay Protocol11-point dosing series were made for each compound by serially diluting 1:3 or 1:4 in DMSO, with point 12 being a DMSO control. From the serial dilution plates, sample was transferred to a 384 wells assay plate (#781280, Greiner, Monroe, N.C.) using Labcyte Echo (Sunnyvale, Calif.), or Biosero ATS (San Diego, Calif.). The compounds were tested in duplicate. Column 12 was used for positive controls, and column 24 contained negative controls with no enzyme added. A compound from our internal collection, with inhibitory activity for JAK isoforms, was used as a reference compound. The final concentration of DMSO was ≤0.25% in a 20 μL reaction. The enzyme reaction was initiated by the addition of 10 μL of enzyme and ATP mixture to 10 μL of substrate solution prepared in reaction buffer (50 mM MOPS pH 7.5, 10 mM MgCl2, 1 mM EDTA, 2 mM DTT, 0.002% Tween-20). The Tyk2 enzyme was pre-incubated with 2 mM ATP for 30 min prior to the reaction initiation. Immediately after the addition of the enzyme to the reaction mixture, the plate was centrifuged at 1000 rpm for 1 minute and incubated at 25° C. for 45 minutes for JAK3 and 90 minutes for JAK1, JAK2 and Tyk2. The reaction was quenched by the addition of 20 μL of 0.5% TFA containing 0.15 μM of internal standard peptide using Multidrop Combi reagent dispenser (Thermo Scientific, Waltham, Mass.). Several wells in column 24 were typically used for the product standard curve. After the quench, the assay plate was centrifuged at 3000 rpm for 3 minutes and sealed with pierceable aluminum foil (Cat#06644-001, Agilent) using a PlateLoc (Agilent Technologies, Santa Clara, Calif.). The plates then were transferred on to the RapidFire for the MS analysis. Compound inhibition was assessed by a decrease of the phosphorylated product levels in sample wells compared to the non-inhibited enzyme reaction.
Non-receptor tyrosine-protein kinase TYK2, sequence (P29597 whole entry C936A/C1142A): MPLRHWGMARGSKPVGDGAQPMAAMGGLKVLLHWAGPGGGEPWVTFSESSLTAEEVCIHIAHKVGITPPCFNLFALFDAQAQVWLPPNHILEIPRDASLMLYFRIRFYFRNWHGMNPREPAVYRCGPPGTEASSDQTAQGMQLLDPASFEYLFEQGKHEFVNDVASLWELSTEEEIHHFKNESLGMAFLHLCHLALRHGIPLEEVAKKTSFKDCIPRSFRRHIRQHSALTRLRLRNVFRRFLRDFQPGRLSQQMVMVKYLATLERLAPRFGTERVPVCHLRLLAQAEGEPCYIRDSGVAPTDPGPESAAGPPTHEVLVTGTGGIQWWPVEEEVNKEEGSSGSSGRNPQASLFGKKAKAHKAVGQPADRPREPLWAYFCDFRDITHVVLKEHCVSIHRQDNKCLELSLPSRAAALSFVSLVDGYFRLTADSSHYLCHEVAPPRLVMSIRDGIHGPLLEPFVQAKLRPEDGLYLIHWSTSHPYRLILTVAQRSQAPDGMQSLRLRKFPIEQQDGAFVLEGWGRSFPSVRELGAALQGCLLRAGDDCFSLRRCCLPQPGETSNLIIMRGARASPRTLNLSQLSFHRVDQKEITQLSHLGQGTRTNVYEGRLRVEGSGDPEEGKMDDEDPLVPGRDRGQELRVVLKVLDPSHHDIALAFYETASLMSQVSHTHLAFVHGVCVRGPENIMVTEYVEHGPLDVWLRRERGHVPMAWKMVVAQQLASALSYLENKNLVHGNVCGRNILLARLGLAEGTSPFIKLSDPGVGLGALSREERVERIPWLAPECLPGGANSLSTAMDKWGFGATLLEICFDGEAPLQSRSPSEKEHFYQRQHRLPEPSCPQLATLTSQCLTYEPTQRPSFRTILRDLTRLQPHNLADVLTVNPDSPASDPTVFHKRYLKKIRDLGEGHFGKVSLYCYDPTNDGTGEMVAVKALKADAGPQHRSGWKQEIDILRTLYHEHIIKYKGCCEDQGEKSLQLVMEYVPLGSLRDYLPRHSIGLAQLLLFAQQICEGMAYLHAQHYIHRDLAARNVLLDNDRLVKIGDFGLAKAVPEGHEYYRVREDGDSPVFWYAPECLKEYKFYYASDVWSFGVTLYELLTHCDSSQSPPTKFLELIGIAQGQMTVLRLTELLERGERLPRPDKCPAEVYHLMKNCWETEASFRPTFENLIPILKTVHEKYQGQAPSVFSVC

[3] = target: Tyrosine-protein kinase JAK1 (Homo sapiens, UniProt P23458); assay: as §1
Tyrosine-protein kinase JAK1, sequence (P23458 whole entry): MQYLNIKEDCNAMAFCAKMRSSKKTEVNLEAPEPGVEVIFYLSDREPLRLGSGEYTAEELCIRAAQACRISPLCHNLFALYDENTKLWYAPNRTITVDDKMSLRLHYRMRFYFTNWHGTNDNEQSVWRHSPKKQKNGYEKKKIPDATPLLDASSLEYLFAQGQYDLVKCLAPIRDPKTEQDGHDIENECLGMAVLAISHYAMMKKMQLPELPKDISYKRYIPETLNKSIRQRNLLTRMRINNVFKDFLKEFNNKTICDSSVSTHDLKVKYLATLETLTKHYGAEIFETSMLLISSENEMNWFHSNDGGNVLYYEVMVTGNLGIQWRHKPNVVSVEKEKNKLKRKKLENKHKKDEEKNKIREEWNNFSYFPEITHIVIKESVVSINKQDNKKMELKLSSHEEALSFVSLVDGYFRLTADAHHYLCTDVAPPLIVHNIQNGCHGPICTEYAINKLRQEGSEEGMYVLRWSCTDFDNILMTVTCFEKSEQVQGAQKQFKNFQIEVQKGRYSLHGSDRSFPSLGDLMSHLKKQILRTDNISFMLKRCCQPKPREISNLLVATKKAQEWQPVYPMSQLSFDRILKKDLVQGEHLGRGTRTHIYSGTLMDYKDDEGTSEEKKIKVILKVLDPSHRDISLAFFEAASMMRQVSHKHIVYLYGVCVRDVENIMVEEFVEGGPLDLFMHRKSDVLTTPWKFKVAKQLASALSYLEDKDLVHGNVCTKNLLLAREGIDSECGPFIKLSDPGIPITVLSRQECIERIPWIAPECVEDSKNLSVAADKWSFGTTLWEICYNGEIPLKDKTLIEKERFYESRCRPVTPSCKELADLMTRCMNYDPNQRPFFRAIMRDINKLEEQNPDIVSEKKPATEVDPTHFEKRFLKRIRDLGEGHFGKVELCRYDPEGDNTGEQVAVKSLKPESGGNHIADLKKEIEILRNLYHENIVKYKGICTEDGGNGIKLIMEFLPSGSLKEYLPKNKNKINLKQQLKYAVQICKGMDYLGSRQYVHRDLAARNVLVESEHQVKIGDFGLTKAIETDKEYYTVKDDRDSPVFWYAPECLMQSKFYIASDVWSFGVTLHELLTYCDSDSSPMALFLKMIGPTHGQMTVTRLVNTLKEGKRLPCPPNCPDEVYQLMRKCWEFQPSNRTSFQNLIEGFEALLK

[4] = target: T1, Tyrosine-protein kinase JAK3 (Homo sapiens, UniProt P52333); assay: as §1
T1 sequence (P52333 whole entry): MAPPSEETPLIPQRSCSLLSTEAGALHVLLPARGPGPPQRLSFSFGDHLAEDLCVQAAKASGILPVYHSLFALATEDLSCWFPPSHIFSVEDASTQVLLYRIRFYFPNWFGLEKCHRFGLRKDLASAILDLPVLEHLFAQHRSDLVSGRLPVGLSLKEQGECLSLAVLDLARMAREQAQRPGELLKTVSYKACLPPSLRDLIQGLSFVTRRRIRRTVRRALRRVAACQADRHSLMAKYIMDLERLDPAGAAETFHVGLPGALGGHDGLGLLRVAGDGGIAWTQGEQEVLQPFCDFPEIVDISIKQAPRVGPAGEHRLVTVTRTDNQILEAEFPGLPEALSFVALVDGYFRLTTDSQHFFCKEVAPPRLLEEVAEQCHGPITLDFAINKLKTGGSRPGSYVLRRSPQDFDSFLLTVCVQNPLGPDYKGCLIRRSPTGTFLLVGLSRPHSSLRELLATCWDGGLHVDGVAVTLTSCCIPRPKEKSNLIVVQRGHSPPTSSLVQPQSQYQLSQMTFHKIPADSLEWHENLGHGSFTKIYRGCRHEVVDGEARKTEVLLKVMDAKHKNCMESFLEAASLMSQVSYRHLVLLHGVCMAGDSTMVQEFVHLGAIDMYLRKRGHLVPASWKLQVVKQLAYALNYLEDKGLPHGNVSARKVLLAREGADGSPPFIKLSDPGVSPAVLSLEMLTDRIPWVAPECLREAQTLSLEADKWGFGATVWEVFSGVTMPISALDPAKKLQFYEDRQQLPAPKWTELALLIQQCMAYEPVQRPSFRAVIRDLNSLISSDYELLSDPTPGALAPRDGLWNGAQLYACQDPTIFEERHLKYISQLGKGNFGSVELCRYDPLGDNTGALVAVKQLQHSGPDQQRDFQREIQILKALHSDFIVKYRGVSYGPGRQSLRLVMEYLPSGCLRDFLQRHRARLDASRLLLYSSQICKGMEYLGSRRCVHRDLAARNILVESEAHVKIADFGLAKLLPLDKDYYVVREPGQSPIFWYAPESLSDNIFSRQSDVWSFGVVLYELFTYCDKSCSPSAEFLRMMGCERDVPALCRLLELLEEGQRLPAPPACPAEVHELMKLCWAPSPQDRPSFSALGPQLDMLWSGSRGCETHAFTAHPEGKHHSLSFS

Row | SMILES | IC50 [1] [nM] | IC50 [2] [nM] | IC50 [3] [nM] | IC50 [4] [nM]
1 | Cc1nc2cnc3[nH]ccc3c2n1[C@H]1CC[C@H](CC#N)CC1 | < 0.2 | 0.9 | < 0.2 | 12.4
2 | N#CC[C@H]1CC[C@H](n2c(CO)nc3cnc4[nH]ccc4c32)CC1 | < 0.2 | < 0.2 | < 0.2 | 13.4
